This passage reports IC50 results from patent US20170283396A1, “DIAMINOHETEROARYL SUBSTITUTED INDAZOLES” (Bayer Pharma Aktiengesellschaft, priority 2013, published 2017).

Read-outs that look alike come from different tables or passages of the source. Bounds are passed on as bounds.

Assay [1] has as its target T1, catalytic domain of human Bub1 (amino acids 704-1085) (Homo sapiens, UniProt O43683).
T1 construct: catalytic domain of human Bub1 (amino acids 704-1085); His6 (N); made in house; host or cells: Hi5 insect cells
Nature of the assay: Bub1 kinase assay (TR-FRET). The format is biochemical. The method, then: To this end, 100-fold concentrated compound solutions (in DMSO) were previously prepared by serial dilution (1:3.4) of 2 mM stocks in a clear low volume 384-well source microtiter plate (Greiner Bio-One, Frickenhausen, Germany), from which 50 nl of compounds were transferred into a black low volume test microtiter plate from the same supplier. […] The resulting mixture (5 μL final volume) was incubated at […] during 60 min., and the reaction was stopped by the addition of 5 μL of an aqueous EDTA-solution (50 mM EDTA, in 100 mM HEPES pH 7.5 and 0.2% (w/v) bovine serum albumin) which also contained the TR-FRET detection reagents (0.2 μM streptavidin-XL665 [Cisbio Bioassays, Codolet, France] and 1 nM anti-phosho-Serine antibody [Merck Millipore, cat. #35-001] and 0.4 nM LANCE EU-W1024 labeled anti-mouse IgG antibody [Perkin-Elmer, product no. AD0077, alternatively a Terbium-cryptate-labeled anti-mouse IgG antibody from Cisbio Bioassays can be used]). The stopped reaction mixture was further incubated 1 h at 22° C. in order to allow the formation of complexes between peptides and detection reagents. Subsequently, the amount of product was evaluated by measurement of the resonance energy transfer from the Eu-chelate-antibody complex recognizing the Phosphoserine residue to the streptavidin-XL665 bound to the biotin moiety of the peptide. […] IC50 values were calculated by fitting the normalized inhibition data to a 4-parameter logistic equation (Minimum, Maximum, IC50, Hill; Y=Max+(Min−Max)/(1+(X/IC50)Hill)).
For orientation: In TR-FRET formats the signal depends on donor and acceptor labels being close together.

In the next assay the test system is HeLa cell line. Nature of the assay: Proliferation assay (HeLa cell line). The format is cell-based. The note with it: Homo sapiens, 96 h, read-out: Biological Assay 2: Proliferation assay (HeLa cell line) median IC50. The method, then: (§1) Cultivated tumor cells (cells were ordered from ATCC, except HeLa-MaTu and HeLa-MaTu-ADR, which were ordered from EPO-GmbH, Berlin) were plated at a density of 1000 to 5000 cells/well, depending on the growth rate of the respective cell line, in a 96-well multititer plate in 200 μL of their respective growth medium supplemented 10% fetal calf serum. After 24 hours, the cells of one plate (zero-point plate) were stained with crystal violet (see below), while the medium of the other plates was replaced by fresh culture medium (200 μL), to which the test substances were added in various concentrations (0 μM, as well as in the range of 0.001-10 μM; the final concentration of the solvent dimethyl sulfoxide was 0.5%). The cells were incubated for 4 days in the presence of test substances. Cell proliferation was determined by staining the cells with crystal violet: the cells were fixed by adding 20 μl/measuring point of an 11% glutaric aldehyde solution for 15 minutes at room temperature. After three washing cycles of the fixed cells with water, the plates were dried at room temperature. The cells were stained by adding 100 μl/measuring point of a 0.1% crystal violet solution (pH 3.0). After three washing cycles of the stained cells with water, the plates were dried at room temperature. The dye was dissolved by adding 100 μl/measuring point of a 10% acetic acid solution. Absorption was determined by photometry at a wavelength of 595 nm. The change of cell number, in percent, was calculated by normalization of the measured values to the absorption values of the zero-point plate (=0%) and the absorption of the untreated (0 μm) cells (=100%). The IC50 values were determined by means of a 4 parameter fit using the company's own software.

For the next assay, the system named is HeLa-MaTu-ADR cell line. In words: Proliferation assay (HeLa-MaTu-ADR cell line). It is filed as cell-based. The note with it: 96 h, read-out: Biological Assay 2: Proliferation assay (HeLa-MaTu-ADR cell line) median IC50. The procedure:
as §1

The test system of another assay is NCI-H460 cell line. In words: Proliferation assay (NCI-H460 cell line). The format is cell-based. The note with it: Homo sapiens, NCI-H460, 96 h, read-out: Biological Assay 2: Proliferation assay (NCI-H460 cell line) median IC50. The procedure: as §1
The test system of a further assay is DU145 cell line. In words: Proliferation assay (DU145 cell line). The note with it: Homo sapiens, DU-145, 96 h, read-out: Biological Assay 2: Proliferation assay (DU145 cell line) median IC50. The format is cell-based. The method, then:
as §1

For the next assay, the system named is Caco2 cell line. In words: Proliferation assay (Caco2 cell line). The format is cell-based. The note with it: Homo sapiens, Caco-2, 96 h, read-out: Biological Assay 2: Proliferation assay (Caco2 cell line) median IC50. The procedure:
as §1

Another assay deals with B16F10 cell line. In words: Proliferation assay (B16F10 cell line). The note with it: Mus musculus, B16-F10, 96 h, read-out: Biological Assay 2: Proliferation assay (B16F10 cell line) median IC50. The format is cell-based. The procedure: as §1
The mark [2] stands for this setting: TR-FRET, 10 μM ATP, 1 μM peptide substrate, read-out: Biological Assay 1: Bub1 kinase assay median IC50.
Setting [3] is: cervical cancer, 4 days incubation, crystal violet staining.

T1 sequence (O43683 704-1085): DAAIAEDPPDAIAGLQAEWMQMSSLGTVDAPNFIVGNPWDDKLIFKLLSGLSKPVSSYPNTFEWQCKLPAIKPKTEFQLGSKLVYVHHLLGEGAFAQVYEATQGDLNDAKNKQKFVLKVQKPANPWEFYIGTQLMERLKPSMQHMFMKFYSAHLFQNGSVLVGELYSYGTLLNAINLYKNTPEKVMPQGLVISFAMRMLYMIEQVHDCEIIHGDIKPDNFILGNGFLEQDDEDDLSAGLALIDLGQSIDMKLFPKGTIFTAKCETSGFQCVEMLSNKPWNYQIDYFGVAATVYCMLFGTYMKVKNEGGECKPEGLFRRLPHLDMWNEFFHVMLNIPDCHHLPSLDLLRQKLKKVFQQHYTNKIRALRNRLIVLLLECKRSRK

Take `CCOc1cc(F)c(Cn2nc(-c3nc(Nc4ccncc4)c(OC)c(Nc4ccncc4)n3)c3ccccc32)c(F)c1` [Example 2-4-2, 2-[1-(4-ethoxy-2,6-difluorobenzyl)-1H-indazol-3-yl]-5-methoxy-N,N′-di(pyridin-4-yl)pyrimidine-4,6-diamine]: the IC50 in assay [1] (setting [2]) came out at 430 nM; in the assay with HeLa cell line, 1500 nM; in the assay with HeLa-MaTu-ADR cell line it was 1100 nM; with NCI-H460 cell line it was 4300 nM; with DU145 cell line, 3700 nM; in the assay on Caco2 cell line it was 420 nM. For the same molecule, in the assay on B16F10 cell line, the IC50 was determined as 540 nM.
With `CCOc1cc(F)c(Cn2nc(-c3nc(Nc4ccncc4)nc(Nc4ccncc4)n3)c3ccccc32)c(F)c1` [Example 2-4-5, 6-[1-(4-ethoxy-2,6-difluorobenzyl)-1H-indazol-3-yl]-N,N′-di(pyridin-4-yl)-1,3,5-triazine-2,4-diamine], the IC50 in assay [1] (setting [2]) stood at 43 nM; in the assay with HeLa cell line, 940 nM; with HeLa-MaTu-ADR cell line, 390 nM; in the assay with NCI-H460 cell line it was 750 nM; in the assay on DU145 cell line, 1200 nM; in the assay with Caco2 cell line, 480 nM. The IC50 in the assay with B16F10 cell line came out at 780 nM.
For `CCOc1cc(F)c(Cn2nc(-c3nc(Nc4ccncc4)c(OCCO)c(Nc4ccncc4)n3)c3ccccc32)c(F)c1` [Example 2-5-2, 2-({2-[1-(4-ethoxy-2,6-difluorobenzyl)-1H-indazol-3-yl]-4,6-bis-(pyridin-4-ylamino)pyrimidin-5-yl}oxy)ethanol], the IC50 amounted to 170 nM in assay [1] (setting [2]); 1200 nM in the assay on HeLa cell line; 280 nM in the assay on HeLa-MaTu-ADR cell line; 590 nM in the assay with NCI-H460 cell line; 940 nM in the assay with DU145 cell line; 400 nM in the assay with Caco2 cell line. For the same molecule, the IC50 in the assay on B16F10 cell line came out at 520 nM.
For `CCOc1cc(F)c(Cn2nc(-c3nc(N)c(OCCOC)c(Nc4ccncc4)n3)c3ccccc32)c(F)c1` [Example 2-3-10, 2-[1-(4-ethoxy-2,6-difluorobenzyl)-1H-indazol-3-yl]-5-(2-methoxyethoxy)-N-(pyridin-4-yl)pyrimidine-4,6-diamine], the values for the IC50 (in assay [1] (setting [2]); with HeLa cell line) were 7.2 nM and 3900 nM, respectively.
The matching figures for `COCC(=O)Nc1cc(Nc2ccncc2)nc(-c2nn(Cc3ccccc3F)c3ccccc23)n1` [Example 2-2-2, N-{2-[1-(2-fluorobenzyl)-1H-indazol-3-yl]-6-(pyridin-4-ylamino)pyrimidin-4-yl}-2-methoxyacetamide]: 96 nM and at least 10000 nM.
For the molecule `CCOc1cc(F)c(Cn2nc(-c3nc(N)c(NS(=O)(=O)C(F)(F)F)c(Nc4ccncc4)n3)c3ccccc32)c(F)c1` [Example 2-3-16, N-{4-amino-2-[1-(4-ethoxy-2,6-difluorobenzyl)-1H-indazol-3-yl]-6-(pyridin-4-ylamino)pyrimidin-5-yl}-1,1,1-trifluoromethanesulfonamide], the IC50 was 8.7 nM in assay [1] (setting [2]) and at least 10000 nM with HeLa cell line.
For `CCOc1cc(F)c(Cn2nc(-c3nc(N)c(OC)c(Nc4ccncc4)n3)c3ccccc32)c(F)c1` [Example 2-3-2, 2-[1-(4-ethoxy-2,6-difluorobenzyl)-1H-indazol-3-yl]-5-methoxy-N-(pyridin-4-yl)pyrimidine-4,6-diamine], in that order: 8.3 nM and 3800 nM.
On to `CC(=O)Nc1cc(Nc2ccncc2)nc(-c2nn(Cc3ccccc3F)c3ccccc23)n1` [Example 2-2-1, N-{2-[1-(2-fluorobenzyl)-1H-indazol-3-yl]-6-(pyridin-4-ylamino)pyrimidin-4-yl}acetamide], for which the values for the IC50 (in assay [1]; in the assay on HeLa cell line (setting [3])) were over 20000 nM and at least 10000 nM, respectively.
For `CCNC(=O)Nc1nc(-c2nn(Cc3c(F)cc(OCC)cc3F)c3ccccc23)nc(Nc2ccncn2)c1N1CCOCC1` [Example 2-3-8, 1-{2-[1-(4-ethoxy-2,6-difluorobenzyl)-1H-indazol-3-yl]-5-(morpholin-4-yl)-6-(pyrimidin-4-ylamino)pyrimidin-4-yl}-3-ethylurea], in that order: 280 nM and over 10000 nM.
With `CCOc1cc(F)c(Cn2nc(-c3nc(N)c(NC(=O)COC)c(Nc4ccncn4)n3)c3ccccc32)c(F)c1` [Example 2-3-14, N-{4-amino-2-[1-(4-ethoxy-2,6-difluorobenzyl)-1H-indazol-3-yl]-6-(pyrimidin-4-ylamino)pyrimidin-5-yl}-2-methoxyacetamide], the IC50 is 7.9 nM in assay [1] (setting [2]) and at least 10000 nM with HeLa cell line.
For `CCOc1cc(F)c(Cn2nc(-c3nc(Nc4ccncn4)c(NC(=O)COC)c(Nc4ccncn4)n3)c3ccccc32)c(F)c1` [Example 2-4-9, N-{2-[1-(4-ethoxy-2,6-difluorobenzyl)-1H-indazol-3-yl]-4,6-bis(pyrimidin-4-ylamino)pyrimidin-5-yl}-2-methoxyacetamide], the IC50 in assay [1] (setting [2]) was 22 nM; in the assay with HeLa cell line it was at least 10000 nM.
The matching figures for `CCOc1cc(F)c(Cn2nc(-c3nc(N)c(NC(=O)COC)c(Nc4ccncc4)n3)c3ccccc32)c(F)c1` [Example 2-3-13, N-{4-amino-2-[1-(4-ethoxy-2,6-difluorobenzyl)-1H-indazol-3-yl]-6-(pyridin-4-ylamino)pyrimidin-5-yl}-2-methoxyacetamide]: 11 nM and 7800 nM.
`CCOc1cc(F)c(Cn2nc(-c3nc(Nc4ccncc4)c(N4CCOCC4)c(Nc4ccncc4)n3)c3ccccc32)c(F)c1` [Example 2-4-3, 2-[1-(4-ethoxy-2,6-difluorobenzyl)-1H-indazol-3-yl]-5-(morpholin-4-yl)-N,N′-di(pyridin-4-yl)pyrimidine-4,6-diamine]: the IC50 was 640 nM in assay [1] and 3400 nM with HeLa cell line (setting [3]).
Turning to `CCOc1cc(F)c(Cn2nc(-c3nc(N)cc(Nc4ccncn4)n3)c3ccccc32)c(F)c1` [Example 2-3-5, 2-[1-(4-ethoxy-2,6-difluorobenzyl)-1H-indazol-3-yl]-N-(pyrimidin-4-yl)pyrimidine-4,6-diamine], the IC50 in assay [1] (setting [2]) came out at 5.3 nM; in the assay with HeLa cell line it was 7800 nM.
For `Nc1cc(Nc2ccncc2)nc(-c2nn(Cc3ccccc3F)c3ccccc23)n1` [Example 2-1-1, 2-[1-(2-fluorobenzyl)-1H-indazol-3-yl]-N-(pyridin-4-yl)pyrimidine-4,6-diamine], in that order: 19 nM and 3600 nM.
